Measurements taken from US20250154144A1 (CHILDREN'S HOSPITAL MEDICAL CENTER, priority 2021, published 2025).
Read-outs that look alike come from different tables or passages of the source.

Tests used:
IRAK1 = IRAK1 (Homo sapiens, UniProt P51617); assay: RBC HotSpot Kinase Assay, IRAK1; details: IRAK1 IC50
IRAK4 = biological target: T1, IRAK4 (Homo sapiens, UniProt Q9NWZ3); assay: RBC HotSpot Kinase Assay, IRAK4
T1 sequence (Q9NWZ3 1-460): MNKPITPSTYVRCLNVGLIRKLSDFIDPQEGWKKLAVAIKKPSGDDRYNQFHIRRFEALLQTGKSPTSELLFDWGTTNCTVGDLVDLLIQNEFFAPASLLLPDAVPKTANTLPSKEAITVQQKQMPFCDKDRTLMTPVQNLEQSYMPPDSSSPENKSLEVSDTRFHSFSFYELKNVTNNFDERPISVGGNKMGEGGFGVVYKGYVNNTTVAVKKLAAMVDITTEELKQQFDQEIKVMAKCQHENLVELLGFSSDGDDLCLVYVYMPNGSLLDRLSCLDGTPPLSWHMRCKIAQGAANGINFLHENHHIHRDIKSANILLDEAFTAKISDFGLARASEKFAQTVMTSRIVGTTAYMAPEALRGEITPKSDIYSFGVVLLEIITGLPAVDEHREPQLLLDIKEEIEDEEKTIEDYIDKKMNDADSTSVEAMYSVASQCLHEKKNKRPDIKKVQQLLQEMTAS

FLT3 = biological target: T2, FLT3 (Homo sapiens, UniProt P36888); assay: RBC HotSpot Kinase Assay, FLT3
T2 sequence (P36888 610-943 limits assumed): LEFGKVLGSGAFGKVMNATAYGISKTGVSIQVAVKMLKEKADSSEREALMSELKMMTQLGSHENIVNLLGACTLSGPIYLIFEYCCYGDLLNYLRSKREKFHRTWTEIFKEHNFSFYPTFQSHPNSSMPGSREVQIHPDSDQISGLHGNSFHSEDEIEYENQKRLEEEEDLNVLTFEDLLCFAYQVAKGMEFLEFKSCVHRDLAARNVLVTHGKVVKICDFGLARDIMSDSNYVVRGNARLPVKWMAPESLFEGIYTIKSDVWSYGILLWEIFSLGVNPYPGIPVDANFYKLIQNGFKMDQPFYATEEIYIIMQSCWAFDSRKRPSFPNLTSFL

THP1 cells = assay: Combination drug screening, Cell Titer Glo, 10 × 10 matrix, THP1 cells; format: cell-based
MOLM14(D835Y) cells = format: cell-based; details: MOLM14(D835Y), 10 × 10
[1] = starting conc. 200 nM, with (+)-BAY-1251152 starting conc. 1000 nM
[2] = starting conc. 200 nM, with Azacitidine (5-Azacytidine) starting conc. 20000 nM
[3] = starting conc. 200 nM, with Palbociclib starting conc. 10000 nM
[4] = starting conc. 200 nM, with Prednisolone starting conc. 10000 nM
[5] = starting conc. 200 nM, with TNO-155 starting conc. 10000 nM
[6] = starting conc. 200 nM, with Venetoclax (ABT-199) starting conc. 2000 nM
[7] = starting conc. 200 nM, with Venetoclax (ABT-199) starting conc. 20000 nM
[8] = starting conc. 20000 nM, with (+)-BAY-1251152 starting conc. 1000 nM
[9] = starting conc. 20000 nM, with Azacitidine (5-Azacytidine) starting conc. 20000 nM
[10] = starting conc. 20000 nM, with Palbociclib starting conc. 10000 nM
[11] = starting conc. 20000 nM, with Prednisolone starting conc. 10000 nM
[12] = starting conc. 20000 nM, with TNO-155 starting conc. 10000 nM
[13] = starting conc. 20000 nM, with Venetoclax (ABT-199) starting conc. 2000 nM
[14] = starting conc. 20000 nM, with Venetoclax (ABT-199) starting conc. 20000 nM

Chain of IRAK1 (P51617 whole entry): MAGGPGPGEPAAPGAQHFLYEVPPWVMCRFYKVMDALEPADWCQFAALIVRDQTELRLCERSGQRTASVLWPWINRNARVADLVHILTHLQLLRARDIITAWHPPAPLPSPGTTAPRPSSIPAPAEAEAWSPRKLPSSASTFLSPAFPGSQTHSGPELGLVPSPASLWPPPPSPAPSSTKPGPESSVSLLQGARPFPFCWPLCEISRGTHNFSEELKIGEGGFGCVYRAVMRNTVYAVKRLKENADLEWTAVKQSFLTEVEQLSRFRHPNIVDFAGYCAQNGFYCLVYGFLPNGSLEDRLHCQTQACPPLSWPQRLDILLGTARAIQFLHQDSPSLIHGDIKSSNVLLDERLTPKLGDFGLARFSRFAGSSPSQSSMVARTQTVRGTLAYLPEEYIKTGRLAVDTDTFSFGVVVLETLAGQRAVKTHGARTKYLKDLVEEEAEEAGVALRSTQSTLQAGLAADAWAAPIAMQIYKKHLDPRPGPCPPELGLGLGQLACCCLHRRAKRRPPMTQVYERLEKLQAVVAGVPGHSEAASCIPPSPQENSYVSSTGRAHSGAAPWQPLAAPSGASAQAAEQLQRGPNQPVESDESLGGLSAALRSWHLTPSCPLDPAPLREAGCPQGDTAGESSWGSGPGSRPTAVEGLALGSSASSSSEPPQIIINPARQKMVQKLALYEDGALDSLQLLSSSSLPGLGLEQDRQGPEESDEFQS

Structure (SMILES): COc1cc2ncc(-c3cncc(N[C@@H]4CCCNC4)n3)n2nc1C1CC1 [Compound 23, (R)-6-(6-cyclopropyl-7-methoxyimidazo[1,2-b]pyridazin-3-yl)-N-(piperidin-3-yl)pyrazin-2-amine]
- IC50 (IRAK1): 175 nM
- IC50 (IRAK4; IRAK4 IC50): 1 nM
- IC50 (FLT3; FLT3 IC50): < 0.5 nM

Structure (SMILES): COc1cc2ncc(-c3cncc(N[C@H]4CNC[C@@H]4F)n3)n2nc1C(C)(O)C(F)(F)F (single isomer, unassigned) [Compound 83]
- IC50 (IRAK1): 4690 nM
- IC50 (IRAK4; IRAK4 IC50): 544 nM
- IC50 (FLT3; FLT3 IC50): 1 nM

Structure (SMILES): COc1cc2ncc(-c3cncc(N[C@H]4CNCC[C@@H]4F)n3)n2nc1C(C)(O)C(F)(F)F (single isomer, unassigned) [Compound 79]
- IC50 (IRAK1): 1020 nM
- IC50 (IRAK4; IRAK4 IC50): 367 nM
- IC50 (FLT3; FLT3 IC50): 6 nM

Structure (SMILES): COc1cc2ncc(-c3cncc(N[C@H]4CNC[C@@H]4F)n3)n2cc1C(C)(O)C(F)(F)F (single isomer, unassigned) [Compound 61]
- IC50 (IRAK1): < 0.5 nM
- IC50 (IRAK4; IRAK4 IC50): < 0.5 nM
- IC50 (FLT3; FLT3 IC50): < 0.5 nM

Structure (SMILES): COc1cc2ncc(-c3cncc(N[C@@H]4CCCNC4)n3)n2nc1C(C)(O)C(F)(F)F (single isomer, unassigned) [Compound 82]
- IC50 (IRAK1): 5440 nM
- IC50 (IRAK4; IRAK4 IC50): 2040 nM
- IC50 (FLT3; FLT3 IC50): 67 nM

Structure (SMILES): COc1cc2ncc(-c3cncc(N[C@H]4CNC[C@@H]4F)n3)n2cc1C(C)(O)C(F)(F)F (single isomer, unassigned) [Compound 62]
- IC50 (IRAK1): 2 nM
- IC50 (IRAK4; read-out: IRAK4 IC50): < 0.5 nM
- IC50 (FLT3; read-out: FLT3 IC50): < 0.5 nM

Structure (SMILES): Cc1cnc(-c2ccc(-c3ccc(NC(=O)Nc4c(F)cc(F)cc4F)cc3F)c3c2C(=O)NC3)[nH]1 [CG-806, reference compound]
- Comments (THP1 cells; [1]): Synergistic at both
- Excess HSA Score (THP1 cells; [1]): −467.1
- Comments (THP1 cells; [2]): Antagonistic
- Excess HSA Score (THP1 cells; [2]): 45.86
- Comments (THP1 cells; [3]): Antagonistic
- Excess HSA Score (THP1 cells; [3]): 74.09
- Comments (THP1 cells; [4]): Synergistic
- Excess HSA Score (THP1 cells; [4]): −30.78
- Comments (THP1 cells; [5]): Antagonistic
- Excess HSA Score (THP1 cells; [5]): 12.04
- Comments (THP1 cells; [6]): Synergistic; Optimal
- Excess HSA Score (THP1 cells; [6]): −1194
- Comments (THP1 cells; [7]): Synergistic; Optimal
- Excess HSA Score (THP1 cells; [7]): −1904
- Comments (THP1 cells; [8]): Synergistic at both
- Excess HSA Score (THP1 cells; [8]): −821.7
- Comments (THP1 cells; [9]): Synergistic
- Excess HSA Score (THP1 cells; [9]): −425.4
- Comments (THP1 cells; [10]): Synergistic
- Excess HSA Score (THP1 cells; [10]): −65.24
- Comments (THP1 cells; [11]): Antagonistic
- Excess HSA Score (THP1 cells; [11]): 185.6
- Comments (THP1 cells; [12]): Synergistic
- Excess HSA Score (THP1 cells; [12]): −333.2
- Comments (THP1 cells; [13]): Synergistic; Optimal
- Excess HSA Score (THP1 cells; [13]): −9.516
- Comments (THP1 cells; [14]): Synergistic; Optimal
- Excess HSA Score (THP1 cells; [14]): −1150
- Excess HSA Score (MOLM14(D835Y) cells; title compound starting conc. 200 nM + (+)-BAY-1251152 starting conc. 1000 nM): −340.1
- Excess HSA Score (MOLM14(D835Y) cells; title compound starting conc. 200 nM + Azacitidine (5-Azacytidine) starting conc. 20000 nM): −208.9
- Excess HSA Score (MOLM14(D835Y) cells; title compound starting conc. 200 nM + Palbociclib starting conc. 10000 nM): −828
- Excess HSA Score (MOLM14(D835Y) cells; title compound starting conc. 200 nM + Prednisolone starting conc. 10000 nM): −264.6
- Excess HSA Score (MOLM14(D835Y) cells; title compound starting conc. 200 nM + TNO-155 starting conc. 10000 nM): −776.6
- Excess HSA Score (MOLM14(D835Y) cells; title compound starting conc. 200 nM + Venetoclax (ABT-199) starting conc. 2000 nM): −1066
- Excess HSA Score (MOLM14(D835Y) cells; title compound starting conc. 200 nM + Venetoclax (ABT-199) starting conc. 20000 nM): −258.9
- Excess HSA Score (MOLM14(D835Y) cells; title compound starting conc. 20000 nM + (+)-BAY-1251152 starting conc. 1000 nM): −150.9
- Excess HSA Score (MOLM14(D835Y) cells; title compound starting conc. 20000 nM + Azacitidine (5-Azacytidine) starting conc. 20000 nM): −51.33
- Excess HSA Score (MOLM14(D835Y) cells; title compound starting conc. 20000 nM + Palbociclib starting conc. 10000 nM): −199.1
- Excess HSA Score (MOLM14(D835Y) cells; title compound starting conc. 20000 nM + Prednisolone starting conc. 10000 nM): 107.5
- Excess HSA Score (MOLM14(D835Y) cells; title compound starting conc. 20000 nM + TNO-155 starting conc. 10000 nM): −286.9
- Excess HSA Score (MOLM14(D835Y) cells; title compound starting conc. 20000 nM + Venetoclax (ABT-199) starting conc. 2000 nM): −481.6
- Excess HSA Score (MOLM14(D835Y) cells; title compound starting conc. 20000 nM + Venetoclax (ABT-199) starting conc. 20000 nM): −139.4

Structure (SMILES): COc1cc2ncc(-c3cncc(N[C@H]4CNCC[C@@H]4F)n3)n2cc1C(C)(O)C(F)(F)F (single isomer, unassigned) [Compound 65]
- IC50 (IRAK1): < 0.5 nM
- IC50 (IRAK4; IRAK4 IC50): < 0.5 nM
- IC50 (FLT3; FLT3 IC50): < 0.5 nM

Structure (SMILES): COc1cc2ncc(-c3cncc(N[C@@H]4CCCNC4)n3)n2nc1C(C)(O)C(F)(F)F (single isomer, unassigned) [Compound 84]
- IC50 (IRAK1): 3020 nM
- IC50 (IRAK4; IRAK4 IC50): 512 nM
- IC50 (FLT3; FLT3 IC50): 2 nM

Structure (SMILES): COc1cc2ncc(-c3ccnc(N[C@H]4CNC[C@@H]4F)n3)n2cc1C(C)(O)C(F)(F)F (single isomer, unassigned) [Compound 55]
- IC50 (IRAK1): < 0.5 nM
- IC50 (IRAK4; IRAK4 IC50): < 0.5 nM
- IC50 (FLT3; FLT3 IC50): < 0.5 nM
